Read-outs that look alike come from different tables or passages of the source.
What was measured:
Test in all cases: Off-target screening (CEREP)
Adenosine A1 respetor = target: T1, Adenosine A1 respetor (Homo sapiens, UniProt P30542); format: binding; settings: read-out: percent inhibition
T1 construct: purchased Eurofins CEREP SA
T1 sequence (P30542 1-326): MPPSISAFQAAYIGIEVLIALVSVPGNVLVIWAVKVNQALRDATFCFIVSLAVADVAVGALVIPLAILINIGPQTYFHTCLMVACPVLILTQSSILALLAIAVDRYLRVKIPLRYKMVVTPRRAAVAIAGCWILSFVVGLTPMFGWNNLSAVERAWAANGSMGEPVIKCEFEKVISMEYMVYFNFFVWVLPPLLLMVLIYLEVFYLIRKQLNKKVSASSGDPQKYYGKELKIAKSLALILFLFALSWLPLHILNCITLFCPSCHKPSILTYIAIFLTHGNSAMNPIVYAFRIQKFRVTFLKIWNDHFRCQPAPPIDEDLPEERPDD
Method: (§1) Supplementary Table 1 │ Off-target activity screening f or MCP compou nds […]
(§2) The assays given in the table above were conducted at Eurofins CEREP S A (Celle-Lévescault, France) and were run as single point measurements in duplicates in the presence of 10 µ M of the test compound and reported as percent inhibition of the radioligand signal or control enzymatic activity. n.d., not

[1] = target: T2, Angiotensin II receptor 1 (Homo sapiens, UniProt P30556); format: binding; settings: read-out: percent inhibition
T2 construct: purchased Eurofins CEREP SA
T2 sequence (P30556 1-359): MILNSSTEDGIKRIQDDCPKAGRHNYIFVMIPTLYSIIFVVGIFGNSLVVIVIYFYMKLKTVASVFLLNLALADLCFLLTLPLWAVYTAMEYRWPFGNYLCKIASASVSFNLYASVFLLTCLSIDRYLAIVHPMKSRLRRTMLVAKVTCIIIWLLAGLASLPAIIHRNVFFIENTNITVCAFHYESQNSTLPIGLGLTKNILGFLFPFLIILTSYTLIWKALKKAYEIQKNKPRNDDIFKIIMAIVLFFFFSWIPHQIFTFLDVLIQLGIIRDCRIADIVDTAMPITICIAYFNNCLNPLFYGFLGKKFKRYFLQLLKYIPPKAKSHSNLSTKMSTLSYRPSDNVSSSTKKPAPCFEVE
Method: as §1, §2

Beta1-adrenoreceptor = target: T3, Beta1-adrenoreceptor (Homo sapiens, UniProt P08588); format: binding; settings: read-out: percent inhibition
T3 construct: purchased Eurofins CEREP SA
T3 sequence (P08588 whole entry): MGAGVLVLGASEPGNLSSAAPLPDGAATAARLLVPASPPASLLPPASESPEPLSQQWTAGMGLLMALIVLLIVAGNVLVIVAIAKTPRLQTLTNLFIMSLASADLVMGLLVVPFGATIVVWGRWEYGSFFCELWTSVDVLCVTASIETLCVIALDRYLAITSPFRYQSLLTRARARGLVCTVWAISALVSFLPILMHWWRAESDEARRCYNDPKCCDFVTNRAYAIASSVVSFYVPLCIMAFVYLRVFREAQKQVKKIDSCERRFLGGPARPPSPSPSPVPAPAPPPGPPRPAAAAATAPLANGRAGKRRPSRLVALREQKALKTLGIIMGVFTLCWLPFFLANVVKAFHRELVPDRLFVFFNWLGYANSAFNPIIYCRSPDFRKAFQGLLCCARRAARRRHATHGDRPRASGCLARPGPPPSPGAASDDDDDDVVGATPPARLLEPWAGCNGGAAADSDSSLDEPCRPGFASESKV
Method: as §1, §2

[2] = target: T4, Cholecystokinin 1 receptor (Homo sapiens, UniProt P32238); format: binding; settings: read-out: percent inhibition
T4 construct: purchased Eurofins CEREP SA
T4 sequence (P32238 1-428): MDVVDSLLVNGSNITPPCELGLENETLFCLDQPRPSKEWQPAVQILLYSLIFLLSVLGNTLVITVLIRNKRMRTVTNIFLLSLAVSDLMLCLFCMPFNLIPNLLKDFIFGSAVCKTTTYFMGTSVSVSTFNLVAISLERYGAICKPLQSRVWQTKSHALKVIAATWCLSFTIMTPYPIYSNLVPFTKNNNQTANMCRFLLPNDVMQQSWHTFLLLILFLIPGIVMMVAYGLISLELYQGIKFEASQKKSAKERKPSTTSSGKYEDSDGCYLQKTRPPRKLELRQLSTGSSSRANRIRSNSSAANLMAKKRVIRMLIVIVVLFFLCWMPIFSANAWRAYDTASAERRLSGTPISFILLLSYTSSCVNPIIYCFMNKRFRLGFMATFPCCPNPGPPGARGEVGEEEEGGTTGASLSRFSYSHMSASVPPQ
Method: as §1, §2

Dopamine D1 receptor = target: T5, Dopamine D1 receptor (Homo sapiens, UniProt P21728); format: binding; settings: read-out: percent inhibition
T5 construct: purchased Eurofins CEREP SA
T5 sequence (P21728 whole entry): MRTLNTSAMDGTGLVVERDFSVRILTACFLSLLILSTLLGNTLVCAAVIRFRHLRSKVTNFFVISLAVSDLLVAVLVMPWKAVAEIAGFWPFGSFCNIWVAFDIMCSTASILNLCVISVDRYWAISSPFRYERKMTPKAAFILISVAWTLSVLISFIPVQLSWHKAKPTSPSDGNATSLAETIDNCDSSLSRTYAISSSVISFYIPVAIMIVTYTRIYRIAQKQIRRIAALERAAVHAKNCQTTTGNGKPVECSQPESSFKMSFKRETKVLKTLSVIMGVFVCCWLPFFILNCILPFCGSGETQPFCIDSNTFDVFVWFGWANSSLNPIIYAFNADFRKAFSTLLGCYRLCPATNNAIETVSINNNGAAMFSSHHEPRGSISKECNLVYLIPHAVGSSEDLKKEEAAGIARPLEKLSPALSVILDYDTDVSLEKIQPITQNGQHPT
Method: as §1, §2

Glucocorticoid receptor = target: T6, Glucocorticoid receptor (Homo sapiens, UniProt P04150); format: binding; settings: read-out: percent inhibition
T6 construct: purchased Eurofins CEREP SA
T6 sequence (P04150 1-777): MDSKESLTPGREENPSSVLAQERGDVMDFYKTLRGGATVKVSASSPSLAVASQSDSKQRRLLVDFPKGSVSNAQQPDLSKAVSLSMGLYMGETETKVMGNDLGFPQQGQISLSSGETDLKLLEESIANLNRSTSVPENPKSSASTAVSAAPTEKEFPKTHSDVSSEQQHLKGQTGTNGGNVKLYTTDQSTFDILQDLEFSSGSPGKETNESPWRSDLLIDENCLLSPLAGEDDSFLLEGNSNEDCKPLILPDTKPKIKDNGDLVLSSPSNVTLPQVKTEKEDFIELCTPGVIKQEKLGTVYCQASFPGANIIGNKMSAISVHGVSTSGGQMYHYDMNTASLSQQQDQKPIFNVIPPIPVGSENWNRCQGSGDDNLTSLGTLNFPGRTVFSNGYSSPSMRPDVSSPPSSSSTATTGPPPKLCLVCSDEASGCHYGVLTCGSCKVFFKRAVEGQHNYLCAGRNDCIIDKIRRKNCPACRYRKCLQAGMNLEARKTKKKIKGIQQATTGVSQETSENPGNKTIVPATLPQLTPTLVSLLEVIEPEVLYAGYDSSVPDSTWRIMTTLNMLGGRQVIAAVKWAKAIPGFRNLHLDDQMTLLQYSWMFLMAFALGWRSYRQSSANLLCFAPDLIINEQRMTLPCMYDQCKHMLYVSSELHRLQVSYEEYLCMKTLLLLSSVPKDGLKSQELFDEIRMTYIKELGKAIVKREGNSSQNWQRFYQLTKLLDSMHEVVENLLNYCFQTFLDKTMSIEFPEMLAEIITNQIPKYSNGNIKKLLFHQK
Method: as §1, §2

Histamine H3 receptor = target: T7, Histamine H3 receptor (Homo sapiens, UniProt Q9Y5N1); format: binding; settings: read-out: percent inhibition
T7 construct: purchased Eurofins CEREP SA
T7 sequence (Q9Y5N1 whole entry): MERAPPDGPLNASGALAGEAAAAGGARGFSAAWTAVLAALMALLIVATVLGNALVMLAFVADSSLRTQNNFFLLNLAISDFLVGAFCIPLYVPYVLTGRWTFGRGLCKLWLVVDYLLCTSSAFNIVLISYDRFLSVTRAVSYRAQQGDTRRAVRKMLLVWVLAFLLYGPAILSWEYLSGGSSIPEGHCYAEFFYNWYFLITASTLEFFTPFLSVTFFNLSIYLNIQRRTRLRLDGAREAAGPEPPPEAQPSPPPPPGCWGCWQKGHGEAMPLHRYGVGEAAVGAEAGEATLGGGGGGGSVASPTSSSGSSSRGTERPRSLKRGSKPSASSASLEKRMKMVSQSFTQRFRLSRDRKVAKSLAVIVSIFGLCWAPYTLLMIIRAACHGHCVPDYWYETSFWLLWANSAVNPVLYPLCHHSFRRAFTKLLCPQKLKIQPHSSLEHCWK
Method: as §1, §2

Muscarinic receptor M1 = target: T8, Muscarinic receptor M1 (Homo sapiens, UniProt P11229); format: binding; settings: read-out: percent inhibition
T8 construct: purchased Eurofins CEREP SA
T8 sequence (P11229 1-460): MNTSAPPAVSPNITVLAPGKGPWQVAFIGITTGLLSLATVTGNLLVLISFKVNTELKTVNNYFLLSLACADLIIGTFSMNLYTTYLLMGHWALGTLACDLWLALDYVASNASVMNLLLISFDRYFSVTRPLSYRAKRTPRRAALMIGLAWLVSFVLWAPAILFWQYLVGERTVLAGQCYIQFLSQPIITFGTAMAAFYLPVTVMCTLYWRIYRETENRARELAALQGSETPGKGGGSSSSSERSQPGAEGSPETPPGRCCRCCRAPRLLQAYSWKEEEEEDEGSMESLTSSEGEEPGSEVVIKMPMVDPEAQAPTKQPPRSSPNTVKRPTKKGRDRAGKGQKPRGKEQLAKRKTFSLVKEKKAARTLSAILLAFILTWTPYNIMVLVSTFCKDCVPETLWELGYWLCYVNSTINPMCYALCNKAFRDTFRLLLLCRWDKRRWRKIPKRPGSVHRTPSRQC
Method: as §1, §2

CDK2 = target: T9, CDK2 (Homo sapiens, UniProt P24941); format: biochemical; settings: read-out: percent inhibition
T9 construct: purchased Eurofins CEREP SA
Method: as §1, §2

GSK-3A = target: T10, GSK-3A (Homo sapiens, UniProt P49840); format: biochemical; settings: read-out: percent inhibition
T10 construct: purchased Eurofins CEREP SA
T10 sequence (P49840 whole entry): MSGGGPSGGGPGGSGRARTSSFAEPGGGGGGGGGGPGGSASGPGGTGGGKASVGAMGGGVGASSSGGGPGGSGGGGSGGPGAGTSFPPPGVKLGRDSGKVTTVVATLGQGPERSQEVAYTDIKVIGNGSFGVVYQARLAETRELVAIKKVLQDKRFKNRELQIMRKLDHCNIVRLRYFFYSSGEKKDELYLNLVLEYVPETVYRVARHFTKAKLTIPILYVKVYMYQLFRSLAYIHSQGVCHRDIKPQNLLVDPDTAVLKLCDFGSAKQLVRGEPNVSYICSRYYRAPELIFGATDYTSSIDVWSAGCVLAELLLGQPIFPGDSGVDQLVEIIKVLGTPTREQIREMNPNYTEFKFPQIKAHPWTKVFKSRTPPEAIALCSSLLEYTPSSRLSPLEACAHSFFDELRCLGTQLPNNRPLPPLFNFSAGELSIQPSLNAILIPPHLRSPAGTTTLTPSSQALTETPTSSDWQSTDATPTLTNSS
Method: as §1, §2

HIV-1 protease = format: biochemical; settings: 10 µM, duplicates
Method: as §1, §2

Structure (SMILES) | inhibition at 10 µM (Adenosine A1 respetor; 10 µM, duplicates) [%] | inhibition at 10 µM ([1]; 10 µM, duplicates) [%] | inhibition at 10 µM (Beta1-adrenoreceptor; 10 µM, duplicates) [%] | inhibition at 10 µM ([2]; 10 µM, duplicates) [%] | inhibition at 10 µM (Dopamine D1 receptor; 10 µM, duplicates) [%] | inhibition at 10 µM (Glucocorticoid receptor; 10 µM, duplicates) [%] | inhibition at 10 µM (Histamine H3 receptor; 10 µM, duplicates) [%] | inhibition at 10 µM (Muscarinic receptor M1; 10 µM, duplicates) [%] | inhibition at 10 µM (CDK2; 10 µM, duplicates) [%] | inhibition at 10 µM (GSK-3A; 10 µM, duplicates) [%] | inhibition at 10 µM (Adenosine A1 respetor) [%] | inhibition at 10 µM [1] [%] | inhibition at 10 µM (Beta1-adrenoreceptor) [%] | inhibition at 10 µM [2] [%] | inhibition at 10 µM (Dopamine D1 receptor) [%] | inhibition at 10 µM (Glucocorticoid receptor) [%] | inhibition at 10 µM (Histamine H3 receptor) [%] | inhibition at 10 µM (Muscarinic receptor M1) [%] | inhibition at 10 µM (CDK2) [%] | percent inhibition (HIV-1 protease) [%] | also measured
CN1C(=O)[C@H](CCCN)NC(=O)[C@H](CCCN)NCc2ccccc2Sc2ccccc2CNC(=O)[C@@H]1Cc1c[nH]c2ccccc12 [RO7036668] | 1 | 14 | 12 | 22 | 27 | 3 | 12 | 26 | 9 | -12 |  |  |  |  |  |  |  |  |  |  | 
CN1C(=O)[C@H](CCCCN)NC(=O)[C@H](CCCN)NCc2cccnc2Sc2cccc(-c3ccc(C(=O)O)cc3)c2CNC(=O)[C@@H]1Cc1c[nH]c2ccccc12 [zosurabalpin] |  |  |  |  |  |  |  |  |  |  | -7 | 6 | 10 | -1 | -3 | -1 | 5 | -3 | 9 | 16 | inhibition at 10 µM (GSK-3A): -1%
CN1C(=O)[C@H](CCCCN)NC(=O)[C@H](CCCN)NCc2cccnc2Sc2c(Cl)ccc(Cl)c2CNC(=O)[C@@H]1Cc1c[nH]c2ccccc12 [RO7075573] |  |  |  |  |  |  |  |  |  |  | -10 | -7 | -2 | 32 | 8 | 9 | -4 | 20 | -5 | -4 | inhibition at 10 µM (GSK-3A): -1%
CN1C(=O)[C@H](CCCCN)NC(=O)[C@H](CCCN)NCc2cccnc2Sc2c(Cl)ccc(-c3ccc(C(=O)O)cc3)c2CNC(=O)[C@@H]1Cc1c[nH]c2ccccc12 [RO7202110] | 1 | 14 | -2 | 0 | -7 | 9 | 5 | -6 | 17 | 22 |  |  |  |  |  |  |  |  |  | 12 | 
